Patent US20240132492A1, “PYRIDOPYRIMIDINE-BASED COMPOUND AND APPLICATION THEREOF” (JINAN UNIVERSITY, priority 2021, published 2024)

How the values were obtained:
Format in all cases: cell-based
[1] = tested on: A549; experiment: CCK-8 tumor cell proliferation, A549; conditions: Homo sapiens, A549 cells, 72 hours
Method: (§1) Tumor cells (see Table 2 to Table 5) were inoculated in 96-well plates in complete culture medium (2000-3000 cells/well). After overnight incubation, the compounds with different concentrations (0.000508 μM-10 μM) were used to treat the cells separately for 72 hours. CCK-8 (Cell Counting Kit 8, Dojindo Laboratories, Kumamoto, Japan) experiment was used to evaluate cell proliferation. GraphPad Prism 5.0 software (La Jolla, CA) was used to calculate the half-maximal inhibitory concentration (IC50) values by fitting the concentration response curve. Each IC50 value was represented as an average value±SD.

[2] = tested on: Bel-7402; experiment: CCK-8 tumor cell proliferation, Bel-7402; conditions: Homo sapiens, Bel-7402 cells, 72 hours
Method: as §1

[3] = tested on: K562; experiment: CCK-8 tumor cell proliferation, K562; conditions: Homo sapiens, K562 cells, 72 hours
Method: as §1

[4] = tested on: PANC-1; experiment: CCK-8 tumor cell proliferation, PANC-1; conditions: Homo sapiens, PANC-1 cells, 72 hours
Method: as §1

[5] = tested on: BT-549; experiment: CCK-8 tumor cell proliferation, BT-549; conditions: Homo sapiens, BT-549 cells, 72 hours
Method: as §1

[6] = tested on: MDA-MB-231; experiment: CCK-8 tumor cell proliferation, MDA-MB-231; conditions: Homo sapiens, MDA-MB-231 cells, 72 hours
Method: as §1

[7] = tested on: BXPC-3; experiment: CCK-8 tumor cell proliferation, BXPC-3; conditions: Homo sapiens, BXPC-3 cells, 72 hours
Method: as §1

[8] = tested on: Huh7; experiment: CCK-8 tumor cell proliferation, Huh7; conditions: Homo sapiens, Huh-7, Huh7 cells, 72 hours
Method: as §1

[9] = tested on: MDA-MB-453; experiment: CCK-8 tumor cell proliferation, MDA-MB-453; conditions: Homo sapiens, MDA-MB-453 cells, 72 hours
Method: as §1

[10] = tested on: HCC1937; experiment: CCK-8 tumor cell proliferation, HCC1937; conditions: Homo sapiens, HCC1937 cells, 72 hours
Method: as §1

[11] = tested on: MIAPACA-2; experiment: CCK-8 tumor cell proliferation, MIAPACA-2; conditions: Homo sapiens, MIA PaCa-2, MIAPACA-2 cells, 72 hours
Method: as §1

[12] = tested on: HCT116; experiment: CCK-8 tumor cell proliferation, HCT116; conditions: Homo sapiens, HCT-116, HCT116 cells, 72 hours
Method: as §1

SMILES | IC50 [1] [µM] | IC50 [2] [µM] | IC50 [3] [µM] | IC50 [4] [µM] | IC50 [5] [µM] | IC50 [6] [µM] | IC50 [7] [µM] | IC50 [8] [µM] | IC50 [9] [µM] | IC50 [10] [µM] | IC50 [11] [µM] | IC50 [12] [µM]
COc1cc(N2CCN(C(=O)CC34CC5CC(CC(C5)C3)C4)CC2)ccc1Nc1ncc2c(C)cc(=O)n(-c3cccc(NC(=O)C4CC4)c3)c2n1 [ZX-HYT-50, N-(3-(2-((4-(4-(2-((3R, 5R, 7R)-adamantan-1-yl)acetyl)piperazin-1-yl)-2-methoxyphenyl)amino)-5-methyl-7-oxypyridino [2,3-d]pyrimidin-8 (7H)-yl)phenyl) cyclopropane formamide] | 0.668 | > 10 | 0.0293 | 0.0137 | > 10 | 0.155 | 0.0421 | 0.632 | > 10 | > 10 | 0.00864 | 0.0119
COc1cc(N2CCN(CCNC(=O)CC34CC5CC(CC(C5)C3)C4)CC2)ccc1Nc1ncc2c(C)cc(=O)n(-c3cccc(NC(=O)C4CC4)c3)c2n1 [ZX-HYT-51, N-(3-(2-((4-(4-(2-(2-((3R, 5R, 7R)-adamantan-1-yl)acetylamino)ethyl)piperazin-1-yl)-2-methoxyphenyl))amino)-5-methyl-7-oxypyridino [2,3-d]pyrimidin-8 (7H)-yl) phenyl) cyclopropane formamide] | 0.629 | > 3 | 0.263 | 0.125 | 0.644 | 0.145 | 0.333 | > 10 | > 10 | > 10 | 0.0513 | 0.0553
COc1cc(N2CCN(C(=O)C34CC5CC(CC(C5)C3)C4)CC2)ccc1Nc1ncc2c(C)cc(=O)n(-c3cccc(NC(=O)C4CC4)c3)c2n1 [ZX-HYT-65, N-(3-(2-((4-(4-((3R, 5R, 7R)-adamantan-1-carbonyl)piperazin-1-yl)-2-methoxyphenyl)amino)-5-methyl-7-oxypyridino [2,3-d]pyrimidin-8 (7H)-yl)phenyl) cyclopropane formamide] | 1.17 | > 10 | 0.234 | 0.179 | > 10 | 0.104 | 0.447 | 0.335 | > 10 | > 10 | 0.0511 | 0.0729
COc1cc(N2CCN(CCCCNC(=O)CC34CC5CC(CC(C5)C3)C4)CC2)ccc1Nc1ncc2c(C)cc(=O)n(-c3cccc(NC(=O)C4CC4)c3)c2n1 [ZX-HYT-52, N-(3-(2-((4-(4-(4-(2-((3R, 5R, 7R)-adamantan-1-yl)acetylamino)butyl)piperazin-1-yl)-2-methoxyphenyl))amino)-5-methyl-7-oxypyridino [2,3-d]pyrimidin-8 (7H)-yl) phenyl) cyclopropane formamide] | 0.833 | 0.568 | 0.25 | 0.126 | 0.478 | 1.99 | 0.303 | 1.35 | 2.5 | 0.002 to 0.005 | 0.0721 | 0.104
